According to ChEMBL document CHEMBL1122763, “Synthesis and biological activity of certain 3,4-disubstituted pyrazolo[3,4-d]pyrimidine nucleosides” (J Med Chem, 1984):
Calls of active or inactive are those of the source. The rule behind the calls is not given here.

How the values were obtained:
[1] = Toxic level was determined; assay type: ADME
B16 [2] = assay: 50% inhibition of the tumor cell growth as compared to the untreated controls against B16 melanoma cells; assay type: functional; settings: Mus musculus, read-out: ID50 (the source's name)
[3] = test system: Lewis lung carcinoma cell line; assay: 50% inhibition of the tumor cell growth as compared to the untreated controls against Lewis lung cells; assay type: functional; settings: Mus musculus, read-out: ID50 (the source's name)
L1210 [4] = assay: Compound was evaluated for inhibition of L1210 leukemia cells; assay type: functional; settings: Mus musculus, read-out: ID50 (the source's name)
P388 [5] = assay: Compound was evaluated for inhibition of P388 lymphoid neoplasm cells; assay type: functional; settings: Mus musculus, read-out: ID50 (the source's name)
Leishmania tropica [6] = assay: Concentration in the culture media that produced 50% inhibition of the leishmania tropica growth; assay type: functional; settings: for EC50: read-out: ED50 (the source's name)
Vero [7] = assay: Virus rating was determined by comparing cytopathic effect against vero cells after infection with Herpes simplex virus-1; assay type: functional, Chlorocebus sabaeus
Vero [8] = assay: Virus rating was determined by comparing cytopathic effect against vero cells after infection with Parainfluenza type 3 (para 3); assay type: functional, Chlorocebus sabaeus
Vero [9] = assay: Virus rating was determined by comparing cytopathic effect against vero cells after infection with Vaccinia virus; assay type: functional, Chlorocebus sabaeus
Vero [10] = assay: Virus rating was determined by comparing cytopathic effect against vero cells after infection with Vesicular stomatitis virus; assay type: functional, Chlorocebus sabaeus
[11] = (§1) Toxic level was determined; Non toxic; assay type: functional
L1210 [12] = assay: Compound was evaluated for inhibition against L1210 leukemia cells; assay type: functional; settings: Mus musculus, read-out: ID50 (the source's name)
P388 [13] = assay: Compound was evaluated for inhibition against P388 lymphoid neoplasm cells; assay type: functional; settings: Mus musculus, read-out: ID50 (the source's name)
L1210 [14] = assay: Percent inhibition at a concentration 10 E -4 against L1210 leukemia cells; Inactive; assay type: functional, cell-based; settings: Mus musculus
P388 [15] = assay: Percent inhibition at a concentration 10 E -4 against P388 lymphoid neoplasm cells; Inactive; assay type: functional, cell-based; settings: Mus musculus
B16 [16] = assay: Percent inhibition of the tumor cell growth as compared to the untreated controls against B16 melanoma cells at a concentration of 10 E-4; assay type: functional, Mus musculus
[17] = as §1; assay type: ADME
L1210 [18] = assay: Percent inhibition at a concentration 10 E -4 against L1210 leukemia cells; assay type: functional, Mus musculus
P388 [19] = assay: Percent inhibition at a concentration 10 E -4 against P388 lymphoid neoplasm cells; assay type: functional, Mus musculus
B16 [20] = assay: 50% inhibition of the tumor cell growth as compared to the untreated controls against B16 melanoma cells; Inactive; assay type: functional, cell-based; settings: Mus musculus
[21] = test system: Lewis lung carcinoma cell line; assay: 50% inhibition of the tumor cell growth as compared to the untreated controls against Lewis lung cells; Inactive; assay type: functional, cell-based; settings: Mus musculus
Leishmania tropica [22] = assay: Concentration in the culture media that produced 50% inhibition of the leishmania tropica growth; Range is 76-190; assay type: functional; settings: read-out: ED50 (the source's name)
P388 [23] = assay: Inhibition at a concentration 10 E -4 against P388 lymphoid neoplasm cells; Inactive; assay type: functional, cell-based; settings: Mus musculus

Row | SMILES | Toxic level [1] | IC50 [3] | IC50 (L1210 [4]) | IC50 (P388 [5]) | Virus rating (Vero [7]) | Virus rating (Vero [8]) | Virus rating (Vero [9]) | Virus rating (Vero [10]) | further results
1 | O=Nn1c(=O)c2c(O)ncnc2n1C1O[C@H](CO)[C@@H](O)[C@H]1O (some centres not stated) | 5 mM | 2.5 µM | 0.43 µM | 0.16 µM | 0.35 | 0.45 | 0.8 | 0 | IC50 (B16 [2]): 80 µM; EC50 (Leishmania tropica [6]): > 160 µM
2 | N#Cc1nn(C2O[C@H](CO)[C@@H](O)[C@H]2O)c2nc[nH]c(=O)c12 (some centres not stated) | – | 250 µM | – | – | 0.25 | 0.32 | 0.55 | 0 | Toxic level [11]: 5 mM; IC50 (B16 [2]): 7 µM; IC50 (L1210 [12]): 0.2 µM; IC50 (P388 [13]): 0.46 µM
3 | N=C(NO)c1nn(C2O[C@H](CO)[C@@H](O)[C@H]2O)c2nc[nH]c(=O)c12 (some centres not stated) | – | – | – | – | 0.1 | 0.2 | 0.12 | 0.35 | Toxic level [11]: 5 mM; ID50 (L1210 [14]): inactive; ID50 (P388 [15]): inactive
4 | NC(=O)c1nn(C2O[C@H](CO)[C@@H](O)[C@H]2O)c2nc[nH]c(=O)c12 (some centres not stated) | 5 mM | 20 µM | 13 µM | 18 µM | 0 | 0.3 | 0.4 | 0 | Inhibition (B16 [16]): 37%
5 | N#Cc1nn(C2O[C@H](CO)[C@@H](O)[C@H]2O)c2ncnc(S)c12 (some centres not stated) | – | – | 0.14 µM | 0.32 µM | 1 | 1.1 | 1.24 | 0.56 | Toxic level [17]: 5 mM
6 | O=c1[nH]cnc2c1c(Br)nn2C1O[C@H](CO)[C@@H](O)[C@H]1O (some centres not stated) | 5 mM | – | – | – | 0.2 | 0.03 | – | – | Inhibition (L1210 [18]): 25%; Inhibition (P388 [19]): 28%; IC50 (Leishmania tropica [6]; read-out: ID50 (the source's name)): > 15 µM
7 | CNc1nn(C2O[C@H](CO)[C@@H](O)[C@H]2O)c2nc[nH]c(=O)c12 (some centres not stated) | 1.6 mM | – | – | – | 0 | 0.1 | 0.2 | – | inhibition (L1210 [14]): inactive; Inhibition (P388 [19]): 20%
8 | CSc1nn(C2O[C@H](CO)[C@@H](O)[C@H]2O)c2nc[nH]c(=O)c12 (some centres not stated) | 5 mM | – | – | – | 0.16 | 0.11 | 0 | – | inhibition (L1210 [14]): inactive; Inhibition (P388 [19]): 16%
9 | NC(=S)c1nn(C2O[C@H](CO)[C@@H](O)[C@H]2O)c2nc[nH]c(=O)c12 (some centres not stated) | 5 mM | 2.4 µM | 0.36 µM | 0.6 µM | 0 | 1.15 | 0.4 | – | IC50 (B16 [2]): 16 µM
10 | OC[C@H]1OC(n2ncc3c(S)ncnc32)[C@H](O)[C@@H]1O (some centres not stated) | – | – | – | – | – | – | – | – | EC50 (Leishmania tropica [6]): 72 µM
11 | Nc1nn(C2O[C@H](CO)[C@@H](O)[C@H]2O)c2nc[nH]c(=O)c12 (some centres not stated) | 5 mM | – | – | – | 0.15 | 0.3 | 0.45 | 0 | ID50 (B16 [20]): inactive; inhibition (L1210 [14]): inactive; ID50 [21]: inactive; inhibition (P388 [15]): inactive; EC50 (Leishmania tropica [6]): > 177 µM
12 | Nc1ncnc2c1c(Br)nn2C1O[C@H](CO)[C@@H](O)[C@H]1O (some centres not stated) | 0.5 mM | – | – | – | 0.4 | 0.2 | 0.1 | 0 | Inhibition (L1210 [18]): 28%; inhibition (P388 [15]): inactive
13 | O=c1[nH]cnc2c1cnn2[C@@H]1O[C@H](CO)[C@@H](O)[C@H]1O | – | – | – | – | 0 | 0.2 | – | 0.3 | Toxic level [11]: 5 mM; EC50 (Leishmania tropica [22]): 76 µM
14 | Nc1ncnc2c1c(N)nn2C1O[C@H](CO)[C@@H](O)[C@H]1O (some centres not stated) | – | – | – | – | 1.3 | 0.45 | 0.4 | 0.25 | Toxic level [11]: 5 mM; ID50 (P388 [23]): inactive
15 | Cl.N=C(N)c1nn(C2O[C@H](CO)[C@H](O)[C@@H]2O)c2ncnc(O)c12 (some centres not stated) | 5 mM | 6.4 µM | 0.23 µM | 0.37 µM | 0.2 | 1.1 | 0.31 | 0 | IC50 (B16 [2]): 3.8 µM
16 | N#Cc1nn(C2O[C@H](CO)[C@@H](O)[C@H]2O)c2ncnc(N)c12 (some centres not stated) | – | – | 0.079 µM | – | – | – | – | – | –
